Results: paper PMC7543951 (Molecular cell, 2020)

Molecular target: T1, ROR1 pseudokinase domain (Homo sapiens, UniProt Q01973)
T1 sequence (Q01973 457-752): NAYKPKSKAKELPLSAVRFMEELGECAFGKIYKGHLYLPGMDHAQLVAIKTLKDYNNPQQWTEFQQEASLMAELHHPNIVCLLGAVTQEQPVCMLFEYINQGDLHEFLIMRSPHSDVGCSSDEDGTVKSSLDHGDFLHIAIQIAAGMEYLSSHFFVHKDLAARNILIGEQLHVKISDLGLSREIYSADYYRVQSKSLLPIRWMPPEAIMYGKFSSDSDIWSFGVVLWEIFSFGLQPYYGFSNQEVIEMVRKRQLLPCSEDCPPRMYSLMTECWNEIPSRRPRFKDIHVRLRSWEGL
Test: DSF concentration series
Type: binding

With `Cc1ccc(C(=O)Nc2ccc(CN3CCN(C)CC3)c(C(F)(F)F)c2)cc1C#Cc1cnc2[nH]ncc2c1` [GZD824] the IC50 was roughly 1000 nM.
